Measured values as given in article PMC10794144, “A novel antibiotic class targeting the lipopolysaccharide transporter” (Nature, 2024).
Like-named read-outs stand apart in the source and are kept apart here.

Assays:
Xanthine oxidase = target: T1, Xanthine oxidase (Bos taurus, UniProt P80457); experiment: Off-target screening (CEREP); assay type: biochemical, bovine; conditions: read-out: percent inhibition
T1 construct: purchased Eurofins CEREP SA
Experimental: (§1) Supplementary Table 1 │ Off-target activity screening f or MCP compou nds […]
(§2) The assays given in the table above were conducted at Eurofins CEREP S A (Celle-Lévescault, France) and were run as single point measurements in duplicates in the presence of 10 µ M of the test compound and reported as percent inhibition of the radioligand signal or control enzymatic activity. n.d., not

CYP2C9 = CYP2C9 (Homo sapiens, UniProt P11712); experiment: CYP inhibition; assay type: in vitro ADME
Sequence of CYP2C9 (P11712 whole entry): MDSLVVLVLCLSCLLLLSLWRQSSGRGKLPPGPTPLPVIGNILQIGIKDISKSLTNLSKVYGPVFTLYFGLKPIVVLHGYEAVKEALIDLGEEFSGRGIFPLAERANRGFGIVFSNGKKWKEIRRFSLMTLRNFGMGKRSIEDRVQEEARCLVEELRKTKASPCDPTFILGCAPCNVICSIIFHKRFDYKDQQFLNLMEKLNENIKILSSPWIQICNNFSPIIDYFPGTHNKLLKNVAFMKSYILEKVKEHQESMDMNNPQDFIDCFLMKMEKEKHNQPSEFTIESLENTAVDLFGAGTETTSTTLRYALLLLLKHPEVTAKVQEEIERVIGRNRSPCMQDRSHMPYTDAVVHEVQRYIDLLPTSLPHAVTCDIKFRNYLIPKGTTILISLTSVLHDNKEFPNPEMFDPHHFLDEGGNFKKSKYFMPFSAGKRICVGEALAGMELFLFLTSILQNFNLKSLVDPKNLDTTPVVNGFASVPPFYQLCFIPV

C. albicans ATCC 90028 = conditions: C. albicans ATCC 90028, read at 100%
A. baumannii [1] = experiment: Neutropaenic mouse thigh infection model; assay type: in vivo; conditions: A. baumannii ACC01085, neutropenic mice, 24 h, summary table, same as average Log CFU/Thigh
Experimental: An intramuscular inoculation of a bacterial suspension of approximately 10^6 CFU per thigh was used to induce the infection. Treatment started 2 h after infection. […] In the pneumonia model, an intratracheal inoculation of approximately 10^7 CFU per lung was used to induce the infection. Treatment started 2 h after infection. […] Standard of care antibiotic was tested at a single dose in both infection models. GraphPad Prism 8 was used for graphical presentation and to analyse data.

[2] = Human whole blood haemolysis assay; conditions: human heparinated blood, 10 min 37 °C
Experimental: For the in vitro haemolysis test, blood was provided by Roche medical services through an anonymous blood donation for research program, approved by the Ethics Committee Northwestern Switzerland and Central Switzerland (EKNZ) and collected with informed consent. Blood was collected by venipuncture in ethylenediaminetetraacetic acid (EDTA) and Li-heparin-coated tubes. Plasma was prepared from anticoagulated blood by centrifugation (2,500g; 10 min; at room temperature) and the haematocrit was measured to ensure that it was within normal reference values. Each formulation of compound in saline was added at a concentration of 8 mg ml^−1 into test tubes containing exactly 0.5 ml of heparinated blood to give a final assay volume of 1 ml and a concentration of 4 mg ml^−1 or less (following further dilutions). After incubation in a water bath for 10 min at 37 °C, the tubes were centrifuged (10 min, 1,811g at room temperature) and 100 μl of the supernatant was subsequently transferred into test tubes containing 5 ml Drabkins solution (RANDOX Laboratories) and 1 ml phosphate buffer. Haemoglobin was photometrically determined at 540 nm according to the RANDOX test-kit instructions. The results were expressed as percentage haemolysis extrapolated from an internal standard curve with 0%, 50% and 100% haemolysed blood samples.

HEK293 cells = experiment: Cell-viability assay (CellTiterGlo); assay type: cell-based; conditions: Homo sapiens, 24 h, 37 °C, 3.125–100 μM, n = 2
Experimental: Compounds were prepared in serial dilutions (3.125–100 μM in 1% DMSO) and transferred to 384-well plates together with a positive (Staurosporine) and a negative (no compound) control. In total, 25 μl of HEK293 cells (ATCC; verified by short tandem repeat PCR and mycoplasma negative) (50,000 cells per ml) were added in either low-serum-containing (0.5% fetal bovine serum (FBS)) or high-serum-containing (12.5% FBS, 1% BSA) medium (Dulbecco’s modified Eagle medium (DMEM), glucose, L-glutamine). The plates were incubated for 24 h at 37 °C and a mixture of CellTiterGlo and DMEM was added to the plates. After incubation at room temperature, the luminescence signal was read using a BioTeK reader and a calculated IC50 was derived from the data.

A. baumannii [3] = experiment: Immunocompetent mouse septicaemia infection model; assay type: in vivo
Experimental: Septicaemia was induced in CD-1 immunocompetent male mice by an intraperitoneal inoculation of a bacterial suspension of the tested A. baumannii isolate at a challenge of approximately 1–2 log[CFU] above the determined median lethal dose (resulting in 10^5 to 10^7 CFU per mouse). […] Mouse survival was followed over 6–7 days. GraphPad Prism 8 was used for graphical presentation of the data. Septicaemia studies with mutant derivative isolates obtained in resistance studies were performed as described above, using a bacterial challenge as determined for the parental isolate.

[4] = test system: GABA-A (benzodiazapine binding site); experiment: Off-target screening (CEREP); set-up: species or system rat; conditions: 10 µM, duplicates
Experimental: as §1, §2

[5] = Fraction unbound in mouse plasma; assay type: in vitro ADME
[6] = test system: Nicotinic receptor, muscle; experiment: Off-target screening (CEREP); assay type: binding, human; conditions: 10 µM, duplicates
Experimental: as §1, §2

[7] = test system: Nicotinic receptor, neuronal; experiment: Off-target screening (CEREP); assay type: binding, human; conditions: 10 µM, duplicates
Experimental: as §1, §2

CYP3A4 = CYP3A4 (Homo sapiens, UniProt P08684); experiment: CYP inhibition; assay type: in vitro ADME
Sequence of CYP3A4 (P08684 whole entry): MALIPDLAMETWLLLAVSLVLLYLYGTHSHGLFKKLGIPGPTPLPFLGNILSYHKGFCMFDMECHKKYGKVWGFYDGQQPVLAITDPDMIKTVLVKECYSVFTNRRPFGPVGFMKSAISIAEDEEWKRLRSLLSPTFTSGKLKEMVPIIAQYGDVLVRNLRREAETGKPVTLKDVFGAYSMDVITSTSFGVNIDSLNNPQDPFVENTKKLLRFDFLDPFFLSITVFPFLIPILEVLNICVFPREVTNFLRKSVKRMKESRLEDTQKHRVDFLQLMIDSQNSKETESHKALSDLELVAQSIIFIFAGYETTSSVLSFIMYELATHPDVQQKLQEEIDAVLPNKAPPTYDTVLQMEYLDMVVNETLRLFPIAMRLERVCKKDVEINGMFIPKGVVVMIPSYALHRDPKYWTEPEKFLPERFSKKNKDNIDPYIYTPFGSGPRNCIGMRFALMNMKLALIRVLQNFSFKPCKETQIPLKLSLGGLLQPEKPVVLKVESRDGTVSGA

[8] = Mouse pharmacokinetics study, i.v. bolus; assay type: in vivo; conditions: male CD1 mice, 1 mg/kg IV
Experimental: Three male CD1 mice were administered with compound formulation (0.5 mg ml^−1 in 0.9% aqueous sodium chloride solution) as an intravenous bolus dose of 1 mg per kg. Blood was sampled at 0.08, 0.25, 0.5, 1, 2, 4, 7 and 24 h after administration and the blood collecting tubes were centrifuged for 5 min at 5,200g at room temperature to isolate the plasma supernatant. The concentrations of compound in the plasma were analysed using a liquid chromatography–mass spectrometry method with a calibration range of 5–10,000 ng ml^−1. The pharmacokinetic parameters were derived from the individual concentration data and were estimated by non-compartmental analysis.

T1 sequence (P80457 whole entry): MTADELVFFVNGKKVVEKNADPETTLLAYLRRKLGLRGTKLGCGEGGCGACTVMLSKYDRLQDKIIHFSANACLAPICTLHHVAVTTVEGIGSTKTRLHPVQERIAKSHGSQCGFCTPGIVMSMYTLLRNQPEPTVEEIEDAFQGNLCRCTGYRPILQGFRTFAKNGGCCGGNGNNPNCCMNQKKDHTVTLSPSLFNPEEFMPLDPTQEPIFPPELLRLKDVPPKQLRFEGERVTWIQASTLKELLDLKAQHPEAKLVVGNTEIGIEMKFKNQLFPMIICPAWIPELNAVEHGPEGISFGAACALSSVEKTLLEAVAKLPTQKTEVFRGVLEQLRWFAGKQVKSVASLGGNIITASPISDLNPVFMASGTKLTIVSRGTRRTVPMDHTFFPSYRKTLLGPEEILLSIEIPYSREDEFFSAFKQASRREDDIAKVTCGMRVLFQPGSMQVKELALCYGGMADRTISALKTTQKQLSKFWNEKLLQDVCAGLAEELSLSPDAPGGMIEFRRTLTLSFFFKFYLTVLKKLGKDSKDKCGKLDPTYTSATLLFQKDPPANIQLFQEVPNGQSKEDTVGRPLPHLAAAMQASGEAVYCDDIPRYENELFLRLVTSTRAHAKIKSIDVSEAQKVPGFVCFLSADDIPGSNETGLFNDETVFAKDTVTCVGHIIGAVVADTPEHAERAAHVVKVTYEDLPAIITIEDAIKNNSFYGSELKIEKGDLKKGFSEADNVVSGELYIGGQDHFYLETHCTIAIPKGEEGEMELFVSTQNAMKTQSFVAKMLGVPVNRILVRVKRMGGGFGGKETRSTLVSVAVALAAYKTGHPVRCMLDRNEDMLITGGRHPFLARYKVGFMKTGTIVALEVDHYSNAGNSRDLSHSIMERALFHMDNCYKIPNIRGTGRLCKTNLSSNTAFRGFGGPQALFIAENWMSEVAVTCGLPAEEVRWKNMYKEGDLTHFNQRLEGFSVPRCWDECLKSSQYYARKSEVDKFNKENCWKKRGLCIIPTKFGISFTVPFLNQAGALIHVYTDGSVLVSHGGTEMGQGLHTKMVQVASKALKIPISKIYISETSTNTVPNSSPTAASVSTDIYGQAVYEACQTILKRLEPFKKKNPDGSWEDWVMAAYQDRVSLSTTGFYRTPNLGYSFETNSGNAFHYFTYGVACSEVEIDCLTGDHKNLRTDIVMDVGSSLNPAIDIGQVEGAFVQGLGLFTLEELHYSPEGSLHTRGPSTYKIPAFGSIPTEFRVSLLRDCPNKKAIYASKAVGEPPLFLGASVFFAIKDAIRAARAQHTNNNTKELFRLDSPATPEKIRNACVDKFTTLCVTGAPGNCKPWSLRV

CN1C(=O)[C@H](CCCCN)NC(=O)[C@H](CCCN)NCc2cccnc2Sc2cccc(-c3ccc(C(=O)O)cc3)c2CNC(=O)[C@@H]1Cc1c[nH]c2ccccc12 [zosurabalpin]
inhibition at 10 µM (Xanthine oxidase): 5% | CYP inh. (2C9) (CYP2C9): >50 (3A4) >50 (2C9) >50 (2D6) μM | RO7223280 MIC 100% (C. albicans ATCC 90028; Study LGC296813): >64 µg/mL | RO7223280 MIC 100% (C. albicans ATCC 90028; Study LGC299544): >64 µg/mL | RO7223280 MIC 100% (C. albicans ATCC 90028; Study LGC308175): >64 µg/mL | Bacterial Load (average) (A. baumannii [1]; 6 mg/kg/day q6h): 8.75 | Bacterial Load (average) (A. baumannii [1]; 20 mg/kg/day q6h): 7.85 | Bacterial Load (average) (A. baumannii [1]; 60 mg/kg/day q6h): 7.41 | Bacterial Load (average) (A. baumannii [1]; 100 mg/kg/day q6h): 6.21 | Bacterial Load (average) (A. baumannii [1]; 160 mg/kg/day q6h): 4.10 | Bacterial Load (average) (A. baumannii [1]; 240 mg/kg/day q6h): 3.37 | Bacterial Load (average) (A. baumannii [1]; 360 mg/kg/day q6h): 3.09 | Haemolysis [2]: None | IC50 (HEK293 cells): > 100 µM | Survival rate from sepsis, treated (A. baumannii [3]; ACC00445 parental, 2 x 30mg/kg s.c., vehicle 0): 0/100% | Survivors, individual mouse status (A. baumannii [3]; ACC00445 septicaemia, 0.3 mg/kg s.c. at 1 and 5 h, Day 1): 1 | Survival rate from sepsis, treated (A. baumannii [3]; ACC00535 parental, 2 x 30mg/kg, vehicle 0): 0/100% | Survival rate from sepsis, treated (A. baumannii [3]; ROB08706 parental, 2 x 30mg/kg, vehicle 0): 0/100% | Survival rate from sepsis, treated (A. baumannii [3]; ROB08708 parental, 2 x 30mg/kg, vehicle 0): 0/100% | Survival rate from sepsis, treated (A. baumannii [3]; ROB08961 (LpxM NS), 2 x 30mg/kg, vehicle 100): 100/100% | Survival rate from sepsis, treated (A. baumannii [3]; ROB08979 (LptF R322L), 2 x 30mg/kg, vehicle 25): 25/50% | Survival rate from sepsis, treated (A. baumannii [3]; ROB08982 (lpxM ISAba1), 2 x 30mg/kg, vehicle 87.5): 87.5/100% | Survival rate from sepsis, treated (A. baumannii [3]; ROB08985 (LpxM NS), 2 x 30mg/kg, vehicle 100): 100/100% | Survival rate from sepsis, treated (A. baumannii [3]; ROB08997 (LptF I323K), 2 x 30mg/kg, vehicle 0): 0/0% | Survival rate from sepsis, treated (A. baumannii [3]; ROB08998 (AdeR A91V), 2 x 30mg/kg, vehicle 12.5): 12.5/100% | Survival rate from sepsis, treated (A. baumannii [3]; ROB09000 (lpxM ISAba1), 2 x 30mg/kg, vehicle 100): 100/100% | Survival rate from sepsis, treated (A. baumannii [3]; ROB21530 (LptF W271S), 2 x 30mg/kg, vehicle 25): 25/37.5% | Survival rate from sepsis, treated (A. baumannii [3]; ROB21531 (LptG G40D), 2 x 30mg/kg, vehicle 0): 0/87.5% | Survival rate from sepsis, treated (A. baumannii [3]; ROB21532 (LptF R322C), 2 x 30mg/kg, vehicle 50): 50/50% | Survival rate from sepsis, treated (A. baumannii [3]; ROB21533 (LptF I317L), 2 x 30mg/kg, vehicle 0): 0/0% | Survival rate from sepsis, treated (A. baumannii [3]; ROB23370 (adeS ISAba1), 2 x 30mg/kg, vehicle 0): 0/75% | Survival rate from sepsis, treated (A. baumannii [3]; ROB23371 (AdeS R152K), 2 x 30mg/kg, vehicle 0): 0/100% | Survival rate from sepsis, treated (A. baumannii [3]; ROB23373 (AdeS G318S), 2 x 30mg/kg, vehicle 0): 0/100% | Survival rate from sepsis, treated (A. baumannii [3]; ROB23377 (AdeS R108S), 2 x 30mg/kg, vehicle 0): 0/100% | Survival rate from sepsis, treated (A. baumannii [3]; ROB23380 (adeS ISAba1), 2 x 30mg/kg, vehicle 0): 0/100% | percent inhibition [4]: -1% | fu (m), fraction unbound in mouse plasma [5]: 37% | percent inhibition [6]: -16% | percent inhibition [7]: -11% | CYP inh. (3A4) (CYP3A4): >50 (3A4) >50 (2C9) >50 (2D6) μM | Vss ([8]; n = 3): 0.7 L/kg | t1/2, terminal plasma half-life ([8]; n = 3): 18 min | Cl ([8]; n = 3, LC-MS, non-compartmental): 51 mL/min/kg
